Source: patent US12714702B2, “Compositions and methods for treating or preventing pulmonary hypertension” (priority 2020, dated 2026)

Experiments:
[1] = tested on: bovine HAPASMC; test: Anti-proliferative efficacy in high-altitude bovine PASMC; assay type: cell-based; settings: inherently highly proliferating bovine HAPASMC, 1.5-5.0 μM, time- and concentration-dependent
Procedure: (§1) Data represent mean±SD (n=5) repeated over 3 experiments. *p<0.05.
(§2) Human or bovine PASMC were treated with varying concentrations of QA (1.5-, 3.1-, and 6.2-μM). Cellular proliferation was measured at day 1, day 3 and day 5 by following the manufacturer's protocol. Briefly, a reagent mix of nucleic acid stain and background suppressor were added in PBS followed by addition of the mix in treatment wells (100 μL/well). The plates were incubated at 37° C./5% CO2 for one hour followed by evaluation of fluorescence at 485 ex/535 em. Proliferation inhibition was analyzed relative to control wells on each time point. Data was averaged from two trials with n=6 for SMC II and one trial of n=4 for SMC III.
(§3) In-vitro studies to measure anti-proliferative activity of QA against pulmonary hypertension were performed using primary human PASMC (FIG. 3), primary bovine PASMC (FIG. 4) and high altitude PASMC (HAPASMC) (FIG. 4). HAPASMC, due to prolonged hypoxia exposure, are known to be hyper-proliferative in regular culture conditions, while hyper-proliferation was induced in PASMC cells by 24 hour serum starvation, or by exposure to 5-hydroxytryptamine (5-HT). […]

[2] = tested on: serum-starved bovine PASMC; test: Anti-proliferative efficacy in serum-starved bovine PASMC; assay type: cell-based; settings: 1.5-5.0 μM, time- and concentration-dependent
Procedure: as §1, §2, §3

[3] = tested on: 5-HT induced bovine PASMC; test: Anti-proliferative efficacy in 5-hydroxytryptamine induced hyper-proliferation; assay type: cell-based; settings: 1.5-5.0 μM, time- and concentration-dependent
Procedure: as §1, §2, §3

[4] = tested on: primary human PASMCs; test: Caspase-3 assay (apoptotic induction); assay type: cell-based; settings: 6-hour treatment, 5 and 10 μM, concentration-dependent
Procedure: Caspase-3 level in SMC II cells was evaluated using EnzCheck™ Caspase-3 assay kit (ThermoFisher Scientific, Waltham, MA, USA) following the manufacturer's protocol. Briefly, upon 90% confluency, SMC II cells were harvested and seeded in 100 mm TC treated culture dishes at a density of 250,000 cells/well and allowed to adhere overnight. Following day, cells were treated with QA (5- and 10-μM) for 6 hours followed by harvesting. Harvested cells were lysed using a lysis buffer for 30 minutes on ice. The cells were centrifuged, and supernatant was used to analyze levels of a caspase-3 substrate aminomethylcoumarin (AMC)-derived substrate Z-DEVD-AMC (fluorescence measurement at 360 ex/460 em).
An apoptotic induction assay, i.e., Caspase-3 assay was performed to understand QA's impact on cellular apoptosis in primary human PASMCs following 6-hour treatment. […] Moreover, another apoptotic induction assay, i.e., Annexin V FITC assay was also used to measure the effects of QA on serum-starved bovine PASMCs.

[5] = tested on: LC3B-II in high-altitude bovine PASMCs; test: Autophagy inhibition assay (LC3B-II expression), western blot; assay type: cell-based; settings: high altitude bovine PASMC cell lysate, QA 5 μM
Procedure: In FIGS. 9A-9B, PASMC were serum starved for 24 hours, and then treated with varying QA concentrations in serum-starved media. Quantification was performed using Cyto-ID® autophagy kit and Annexin-V/FITC apoptosis kit. […] In FIG. 9C, autophagy inhibition by QA (5 μM) as depicted by increase in LC3B-II concentration in bovine high altitude PASMC quantified by western blot assay kit. Data represent mean±SD (n=3). *p<0.05.
High-altitude bovine PASMCs were used to determine the effect of QA on LC3B-II, an autophagy marker, by western blotting (#3868S, LC3B (D11) XP Rabbit monoclonal antibody, Cell Signaling, Danvers, MA).
Autophagy inhibition (lysosomal fusion with autophagosomes) by QA was examined. Bovine PASMCs were serum starved in FBS-free media for 24 hours, and then treated with QA (2.5 and 5 μM) for 24 hours. Autophagic inhibition was measured with Cyto-ID® autophagy detection kit. […] QA-induced autophagy inhibition by targeting LC3B-II expression was examined using HAPASMCs.

[6] = molecular target: ITCH/AIP4 E3 ligase (Homo sapiens, UniProt Q96J02); test: ITCH/AIP4 E3 ligand activity assay, ubiquitin ELISA (UbiQuant); assay type: biochemical; settings: 20 μM dose
Procedure: The ligand activity inhibition by QA at multiple concentrations (0, 10, or 20 μM) in presence of ubiquitin was quantified.

[7] = tested on: MCT-induced rodent model of pulmonary hypertension; test: Monocrotaline (MCT) induced therapeutic rat model of pulmonary hypertension, hemodynamics; assay type: in vivo; settings: MCT rats, QA 10 mg/kg s.c. once-a-day for 10 days starting 3 weeks after MCT
Procedure: Adult male SD rats were injected with MCT (50 mg/kg) by subcutaneous injection. QA administration was initiated 21 days (3 weeks) after MCT administration, once-a-day by subcutaneous route at 10 mg/kg for 10 days. […] Data represent mean±SEM (n=5). *p<0.05.
Preclinical in-vivo studies for QA were earlier performed at a dose of 10 mg/kg once-a-day in monocrotaline (MCT) induced therapeutic PAH model. Hemodynamic parameters were collected and lung tissues were also collected and were sectioned for visualizing the impact of QA treatment on various PAH biomarkers in-vivo.
To determine the therapeutic activity of QA against PH, the drug was tested using chronic hemodynamic studies in a monocrotaline (MCT)-induced rodent model of pulmonary hypertension. MCT induction is a well established preliminary model, with a single subcutaneous injection of MCT producing chronic PH-like symptoms in rats over a course of 3-4 weeks. Briefly, MCT was subcutaneously injected in adult male Sprague Dawley (SD) rats at 50 mg/kg, and rats were housed for 3 weeks with free access to food and water. […] At the end of day 10, animals were anesthetized to determine right ventricular systolic pressure (RVSP) by RV catheterization, and RV hypertrophy (RVH) was measured by collecting the heart-lung blocks.

[8] = tested on: p62, BMPR2, LC3B-II, p21, p65, phospho-AKT, phospho-p65 in right lung; test: SU5416/hypoxia model, western blot of right lung homogenate; assay type: in vivo, rat
From the text: FIGS. 18E-18F show western blot analysis of tissue (right lung) lysates for expression of various disease marker proteins including p62, BMPR2, LC3B-II, p21, p65, p53, phosphorylated-p53 and phosphorylated-AKT using corresponding monoclonal antibodies.
The accumulation of p62, a protein degraded by autophagy pathways, is indicative of autophagy inhibition.

ITCH/AIP4 E3 ligase, sequence (Q96J02 whole entry): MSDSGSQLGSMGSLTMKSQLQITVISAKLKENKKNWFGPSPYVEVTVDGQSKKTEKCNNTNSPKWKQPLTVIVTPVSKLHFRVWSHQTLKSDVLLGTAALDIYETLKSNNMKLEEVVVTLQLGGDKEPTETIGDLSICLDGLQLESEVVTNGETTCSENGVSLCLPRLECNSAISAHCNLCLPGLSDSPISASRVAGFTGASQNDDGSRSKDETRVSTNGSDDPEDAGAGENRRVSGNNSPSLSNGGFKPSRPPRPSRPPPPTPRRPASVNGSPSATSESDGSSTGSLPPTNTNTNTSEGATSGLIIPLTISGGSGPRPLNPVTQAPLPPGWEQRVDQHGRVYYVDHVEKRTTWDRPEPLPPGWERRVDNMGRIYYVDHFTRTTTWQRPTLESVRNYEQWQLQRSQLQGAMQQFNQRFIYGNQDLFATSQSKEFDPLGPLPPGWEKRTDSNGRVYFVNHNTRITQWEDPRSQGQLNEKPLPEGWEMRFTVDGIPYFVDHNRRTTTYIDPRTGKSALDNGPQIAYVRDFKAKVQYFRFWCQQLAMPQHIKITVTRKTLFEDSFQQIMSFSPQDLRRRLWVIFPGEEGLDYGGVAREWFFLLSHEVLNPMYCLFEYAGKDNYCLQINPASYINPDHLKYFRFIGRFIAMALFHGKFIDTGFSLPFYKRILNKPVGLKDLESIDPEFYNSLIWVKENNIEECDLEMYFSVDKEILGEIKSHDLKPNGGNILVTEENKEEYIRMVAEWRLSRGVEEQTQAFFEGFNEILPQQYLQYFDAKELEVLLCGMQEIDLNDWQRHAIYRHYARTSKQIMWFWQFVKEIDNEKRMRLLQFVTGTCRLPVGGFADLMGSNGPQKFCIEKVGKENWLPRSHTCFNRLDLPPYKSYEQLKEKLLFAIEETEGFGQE

## CCN(CC)CCCC(C)Nc1c2ccc(Cl)cc2nc2ccc(OC)cc12 (centres unmarked) [QA, quinacrine]
[1]
  proliferation: significantly inhibits proliferation
[2]
  proliferation: significantly inhibits proliferation
[3]
  proliferation: significantly inhibits proliferation
[4]
  caspase-3 levels: increased caspase-3 levels
[5]
  increase in LC3B-II expression: > 2 fold
[6]
  reduction in total polyubiquitination resulting from ITCH/AIP4 activity: ~ 25%
[7]
  right ventricular systolic pressure (RVSP): 39.9±1.8 mm Hg
[8]; right lung homogenate
  autophagy marker LC3B-II: accumulated
  autophagy marker p62: accumulated
[8]; right lung homogenate, in comparison to control animals
  accumulation of BMPR2: > 2 fold
[8]; tissue lysates
  expression of p21 protein: significant increase
  expression of phospho-AKT: decreased
  expression of phospho-p65: decreased
  p65: significant reduction
